Test results reported in patent publication US20230048678A1, “ICAN DERIVATIVES FOR ANTIFUNGAL USE” (DEBRECENI EGYETEM, priority 2019, published 2023).
Where “and” joins values, the source holds several entries; their conditions need not be identical. Equal entries are not always repeated.

Assays:
Format in all cases: cell-based
[1] = test system: C. albicans SC5314, C. krusei ATCC 6258 and C. parapsilosis ATCC 22019; assay: CLSI broth microdilution, MIC summarised over the three Candida test strains; details: value or range over the three Candida strains of Table 1, total inhibition
Protocol: ICAN has 3 key moieties, namely the amino, naphthalene and isonitrile. To find out which ones of them are essential for the antifungal behavior and to design more efficient derivatives, comparative studies were carried out, where one of the moieties was exchanged or eliminated. All ICAN derivatives were tested against C. albicans SC5314, C. krusei ATCC 6258 and C. parapsilosis ATCC 22019. The antifungal agents were dissolved in 100% DMSO and diluted further in RPMI-1640 (with L-glutamine but without bicarbonate) and buffered to pH 7.0 with 0.165 M morpholinopropanesulfonic acid (MOPS). MICs were read visually after 48-h incubation at 35° C. using the partial (50%) inhibition (for ICAN derivatives) (PI) and total inhibition (for AMB and ICAN derivatives) (TI) criteria. MICs were determined at least twice.
(§1) The tested C. albicans, C. tropicalis, C. parapsilosis, C. glabrata and C. krusei ATCC strains and clinical isolates are listed in Table 2. MICs were determined according to the CLSI M27-A3 [22]. Antifungal agents were dissolved in 100% DMSO and diluted further in RPMI-1640 (with L-glutamine but without bicarbonate) (Sigma, Budapest, Hungary), and buffered to pH 7.0 with 0.165 M morpholinopropanesulfonic acid (MOPS; Sigma, Budapest, Hungary). The final concentration ranges used for AMB and ICAN derivatives were 0.125 to 4 μg/ml and 0.04 to 20 μg/ml, respectively. Yeast cell suspensions were prepared in RPMI 1640 medium and were adjusted to give a final inoculum concentration of 0.5×10^3 to 2.5×10^3 cells/ml. MICs were read visually after 48-h incubation at 35° C. using the partial (50%) inhibition (for ICAN derivatives) (PI) and total inhibition (for AMB and ICAN derivatives) (TI) criteria. MICs were determined at least twice. For amphotericin B isolates with MIC values of ≤2 mg/L were considered wild-types. [Pfaller M A, 2012]

[2] = test system: clinical Candida isolates (C. albicans, C. krusei, C. tropicalis, C. glabrata, C. parapsilosis); assay: Broth microdilution, MIC summarised over all clinical Candida isolates; details: range or bound over all tested isolates of five Candida species
Protocol: The present inventors have discovered that 1-amino-5-isocyanonaphthalene (ICAN) and its derivatives exert excellent antifungal activity against a broad range of Candida species. […] Nevertheless, proper formulation and/or substitution with solubility enhancer groups on the naphthalene core may increase its effectiveness. Based on MIC values (MICPI=0.04−0.3 μg/ml MICTI=0.6 μg/ml) and its low cytotoxicity 1,1-N-dimethylamino-5-isocyanonaphthalene (DIMICAN) was selected to be tested on clinical Candida isolates. […] Amphotericin B (AMB) is an antifungal agent which is effective against a number of medically important fungi. The in vivo applicability of DIMICAN was tested on immunosuppressed mice and control experiments were also conducted with amphotericin B. In the model of acute invasive candidiasis, neutropenic mice were infected intravenously with C. albicans isolate 3666 (3×10^4 cfu/mouse) to establish an acute infection, and all untreated control animals died within 6 days. […]
The tested C. albicans, C. tropicalis, C. parapsilosis, C. glabrata and C. krusei ATCC strains and clinical isolates are listed in Table 2. MICs were determined according to the CLSI M27-A3 [22]. […] MICs were read visually after 48-h incubation at 35° C. using the partial (50%) inhibition (for ICAN derivatives) (PI) and total inhibition (for AMB and ICAN derivatives) (TI) criteria. MICs were determined at least twice. […]

C. tropicalis isolates = assay: CLSI M27-A3 broth microdilution on Candida isolates (Table 2)
Protocol: as §1

C. albicans isolates = assay: as above
Protocol: as §1

C. glabrata isolates = assay: as above
Protocol: as §1

C. parapsilosis isolates = assay: as above
Protocol: as §1

C. krusei isolates = assay: as above
Protocol: as §1

[C-]#[N+]c1cccc2c(N(C)C)cccc12 [DIMICAN, N,N-dimethyl-1-amino-5-isocyanonaphthalene]
MICTI [1]: 0.6 µg/mL and 0.3 to 0.6 µg/mL | total minimum inhibitory concentration (MICTI) [2]: 0.08 to 1.25 µg/mL | MICPI (C. tropicalis isolates; isolate 579): 0.08 µg/mL | MICTI (C. tropicalis isolates; isolate 579): 0.6 µg/mL | MICPI (C. tropicalis isolates; isolate 622): 0.08 µg/mL | MICTI (C. tropicalis isolates; isolate 622): 0.3 µg/mL | MICPI (C. tropicalis isolates; isolate 1776): 0.08 µg/mL | MICTI (C. tropicalis isolates; isolate 1776): 0.3 µg/mL | MICPI (C. tropicalis isolates; isolate 2467): 0.15 µg/mL | MICTI (C. tropicalis isolates; isolate 2467): 1.25 µg/mL | MICPI (C. tropicalis isolates; isolate 3014): 0.08 µg/mL | MICTI (C. tropicalis isolates; isolate 3014): 0.6 µg/mL | MICPI (C. tropicalis isolates; isolate 5115): 0.08 µg/mL | MICTI (C. tropicalis isolates; isolate 5115): 1.25 µg/mL | MICPI (C. tropicalis isolates; isolate 5806): 0.08 µg/mL | MICTI (C. tropicalis isolates; isolate 5806): 0.15 µg/mL | MICPI (C. tropicalis isolates; isolate ATCC 750): 0.15 µg/mL | MICTI (C. tropicalis isolates; isolate ATCC 750): 1.25 µg/mL | MICPI (C. albicans isolates; isolate 456): ≤0.04 µg/mL | MICTI (C. albicans isolates; isolate 456): 0.6 µg/mL | MICPI (C. albicans isolates; isolate 665): ≤0.04 µg/mL | MICTI (C. albicans isolates; isolate 665): 0.6 µg/mL | MICPI (C. albicans isolates; isolate 685): ≤0.04 µg/mL | MICTI (C. albicans isolates; isolate 685): 0.6 µg/mL | MICPI (C. albicans isolates; isolate 720): ≤0.04 µg/mL | MICTI (C. albicans isolates; isolate 720): 0.6 µg/mL | MICPI (C. albicans isolates; isolate 963): ≤0.04 µg/mL | MICTI (C. albicans isolates; isolate 963): 0.6 µg/mL | MICPI (C. albicans isolates; isolate 1544): ≤0.04 µg/mL | MICTI (C. albicans isolates; isolate 1544): 0.6 µg/mL | MICPI (C. albicans isolates; isolate 3666): ≤0.04 µg/mL | MICTI (C. albicans isolates; isolate 3666): 0.6 µg/mL | MICPI (C. albicans isolates; isolate 8658): ≤0.04 µg/mL | MICTI (C. albicans isolates; isolate 8658): 0.6 µg/mL | MICPI (C. albicans isolates; isolate ATCC 10231): ≤0.04 µg/mL | MICTI (C. albicans isolates; isolate ATCC 10231): 0.3 µg/mL | MICPI (C. glabrata isolates; isolate 14408): ≤0.04 µg/mL | MICTI (C. glabrata isolates; isolate 14408): 0.08 µg/mL | MICPI (C. glabrata isolates; isolate 14559): ≤0.04 µg/mL | MICTI (C. glabrata isolates; isolate 14559): 0.3 µg/mL | MICPI (C. glabrata isolates; isolate 22394): ≤0.04 µg/mL | MICTI (C. glabrata isolates; isolate 22394): 0.3 µg/mL | MICPI (C. glabrata isolates; isolate 23429): ≤0.04 µg/mL | MICTI (C. glabrata isolates; isolate 23429): 0.3 µg/mL | MICPI (C. glabrata isolates; isolate 23481): 0.08 µg/mL | MICTI (C. glabrata isolates; isolate 23481): 1.25 µg/mL | MICPI (C. glabrata isolates; isolate 27643): 0.08 µg/mL | MICTI (C. glabrata isolates; isolate 27643): 0.3 µg/mL | MICPI (C. glabrata isolates; isolate 28557): ≤0.04 µg/mL | MICTI (C. glabrata isolates; isolate 28557): 0.6 µg/mL | MICPI (C. glabrata isolates; isolate ATCC 90030): 0.15 µg/mL | MICTI (C. glabrata isolates; isolate ATCC 90030): 0.3 µg/mL | MICPI (C. parapsilosis isolates; isolate 4133): 0.08 µg/mL | MICTI (C. parapsilosis isolates; isolate 4133): 0.08 µg/mL | MICPI (C. parapsilosis isolates; isolate 9613): 0.15 µg/mL | MICTI (C. parapsilosis isolates; isolate 9613): 0.15 µg/mL | MICPI (C. parapsilosis isolates; isolate 10252): ≤0.04 µg/mL | MICTI (C. parapsilosis isolates; isolate 10252): 0.08 µg/mL | MICPI (C. parapsilosis isolates; isolate 18154): 0.08 µg/mL | MICTI (C. parapsilosis isolates; isolate 18154): 0.6 µg/mL | MICPI (C. parapsilosis isolates; isolate 27001): ≤0.04 µg/mL | MICTI (C. parapsilosis isolates; isolate 27001): 0.3 µg/mL | MICPI (C. parapsilosis isolates; isolate ATCC 22019): 0.15 µg/mL | MICTI (C. parapsilosis isolates; isolate ATCC 22019): 0.6 µg/mL | MICPI (C. krusei isolates; isolate 749): 0.08 µg/mL | MICTI (C. krusei isolates; isolate 749): 0.08 µg/mL | MICPI (C. krusei isolates; isolate 1853): 0.08 µg/mL | MICTI (C. krusei isolates; isolate 1853): 0.3 µg/mL | MICPI (C. krusei isolates; isolate 4364): ≤0.04 µg/mL | MICTI (C. krusei isolates; isolate 4364): 0.15 µg/mL | MICPI (C. krusei isolates; isolate 5029): ≤0.04 µg/mL | MICTI (C. krusei isolates; isolate 5029): 0.08 µg/mL | MICPI (C. krusei isolates; isolate 5072): 0.08 µg/mL | MICTI (C. krusei isolates; isolate 5072): 0.3 µg/mL | MICPI (C. krusei isolates; isolate 25504): 0.08 µg/mL | MICTI (C. krusei isolates; isolate 25504): 0.3 µg/mL | MICPI (C. krusei isolates; isolate 34987): ≤0.04 µg/mL | MICTI (C. krusei isolates; isolate 34987): 0.08 µg/mL | MICPI (C. krusei isolates; isolate ATCC 6258): 0.15 µg/mL | MICTI (C. krusei isolates; isolate ATCC 6258): 0.3 µg/mL
